pIC50: −log10 of the molar value.
Assays:
Serratia marcescens [1] = assay: Antimicrobial activity against Serratia marcescens GC 1781 expressing Sme1 and AmpC in presence of 4 ug/mL piperacillin; type: functional
Staphylococcus aureus = assay: Antimicrobial activity against Staphylococcus aureus GC 2216 in presence of 4 ug/mL piperacillin; type: functional
Escherichia coli [2] = assay: Antimicrobial activity against Escherichia coli GC 2847 expressing TEM1 in presence of 4 ug/mL piperacillin; type: functional
Klebsiella pneumoniae = assay: Antimicrobial activity against Klebsiella pneumoniae GC 2825 in presence of 4 ug/mL piperacillin; type: functional
Beta-lactamase = Beta-lactamase (Enterobacter cloacae, UniProt P05364)
Description: Inhibition of Enterobacter cloacae AmpC

Escherichia coli [3] = assay: Antimicrobial activity against Escherichia coli GC 2252 expressing IRT2 in presence of 4 ug/mL piperacillin; type: functional
Escherichia coli [4] = assay: Antimicrobial activity against Escherichia coli GC 2920 expressing IRT2 in presence of 4 ug/mL piperacillin; type: functional
Escherichia coli [5] = assay: Antimicrobial activity against Escherichia coli GC 2203 in presence of 4 ug/mL piperacillin; type: functional
Enterobacter cloacae [6] = assay: Antimicrobial activity against Enterobacter cloacae GC 1477 expressing AmpC in presence of 4 ug/mL piperacillin; type: functional
Enterobacter cloacae [7] = assay: Antimicrobial activity against Enterobacter cloacae GC 1475 expressing P99 in presence of 4 ug/mL piperacillin; type: functional
Escherichia coli [8] = assay: Antimicrobial activity against Escherichia coli GC 2804 expressing Imp in presence of 4 ug/mL piperacillin; type: functional
Beta-lactamase TEM = Beta-lactamase TEM (Escherichia coli, UniProt P62593); assay: Inhibition of Escherichia coli TEM1
Enterobacter cloacae [9] = assay: Antimicrobial activity against Enterobacter cloacae GC 2071 expressing Imi1 and AmpC in presence of 4 ug/mL piperacillin; type: functional
Pseudomonas aeruginosa = assay: Antimicrobial activity against Pseudomonas aeruginosa GC 1764 expressing AmpC in presence of 4 ug/mL piperacillin; type: functional
Serratia marcescens [10] = assay: Antimicrobial activity against Serratia marcescens GC 4142 expressing AmpC in presence of 4 ug/mL piperacillin; type: functional
Escherichia coli [11] = assay: Antimicrobial activity against Escherichia coli GC 2844 in presence of 4 ug/mL piperacillin; type: functional
[12] = target: Metallo-beta-lactamase type 2 (Bacteroides fragilis, UniProt P25910); assay: Inhibition of Bacteroides fragilis CcrA
Escherichia coli [13] = assay: Antimicrobial activity against Escherichia coli GC 2805 expressing CcrA in presence of 4 ug/mL piperacillin; type: functional
[14] = Inhibition of Enterobacter cloacae class C beta lactamase GC1
Beta-lactamase SHV-1 = target: T1, Beta-lactamase SHV-1 (Escherichia coli, UniProt P0AD63); assay: Inhibition of Escherichia coli SHV1
T1 sequence (P0AD63 whole entry): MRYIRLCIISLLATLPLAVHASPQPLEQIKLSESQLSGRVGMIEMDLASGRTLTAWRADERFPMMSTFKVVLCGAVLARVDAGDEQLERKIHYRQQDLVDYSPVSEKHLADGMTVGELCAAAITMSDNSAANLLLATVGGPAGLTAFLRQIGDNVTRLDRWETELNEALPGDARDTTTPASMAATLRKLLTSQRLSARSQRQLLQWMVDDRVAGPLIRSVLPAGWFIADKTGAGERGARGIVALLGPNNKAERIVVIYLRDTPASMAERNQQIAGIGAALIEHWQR

Chain of Metallo-beta-lactamase type 2 (P25910 whole entry): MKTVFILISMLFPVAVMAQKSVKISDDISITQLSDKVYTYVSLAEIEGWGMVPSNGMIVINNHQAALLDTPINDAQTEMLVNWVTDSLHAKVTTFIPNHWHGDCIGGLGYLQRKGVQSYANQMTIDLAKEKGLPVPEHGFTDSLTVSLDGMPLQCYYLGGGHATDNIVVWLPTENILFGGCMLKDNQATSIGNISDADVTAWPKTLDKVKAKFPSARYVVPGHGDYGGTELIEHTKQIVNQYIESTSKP
Chain of Beta-lactamase TEM (P62593 whole entry): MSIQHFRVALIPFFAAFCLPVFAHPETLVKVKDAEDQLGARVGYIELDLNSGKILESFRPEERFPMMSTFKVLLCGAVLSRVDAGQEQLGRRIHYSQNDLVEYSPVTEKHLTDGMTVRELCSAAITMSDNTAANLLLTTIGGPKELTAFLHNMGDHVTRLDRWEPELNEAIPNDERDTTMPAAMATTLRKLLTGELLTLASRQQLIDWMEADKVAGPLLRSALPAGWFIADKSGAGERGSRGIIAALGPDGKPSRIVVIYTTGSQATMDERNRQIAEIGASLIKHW
Chain of Beta-lactamase (P05364 whole entry): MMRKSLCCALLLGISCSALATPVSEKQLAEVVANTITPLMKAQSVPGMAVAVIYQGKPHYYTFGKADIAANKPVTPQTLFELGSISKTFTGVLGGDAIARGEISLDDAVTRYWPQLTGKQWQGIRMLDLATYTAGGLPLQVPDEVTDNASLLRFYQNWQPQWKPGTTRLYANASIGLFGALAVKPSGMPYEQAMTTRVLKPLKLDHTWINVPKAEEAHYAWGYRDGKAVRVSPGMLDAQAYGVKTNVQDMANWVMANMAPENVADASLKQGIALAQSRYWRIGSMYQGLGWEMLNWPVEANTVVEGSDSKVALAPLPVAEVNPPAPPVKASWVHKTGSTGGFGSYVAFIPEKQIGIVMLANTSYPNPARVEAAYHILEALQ

| Structure (SMILES) | MIC (Serratia marcescens [1]) | MIC (Staphylococcus aureus) | MIC (Escherichia coli [2]) | MIC (Klebsiella pneumoniae) | pIC50 (Beta-lactamase) | MIC (Escherichia coli [3]) | MIC (Escherichia coli [4]) | MIC (Escherichia coli [5]) | MIC (Enterobacter cloacae [6]) | MIC (Enterobacter cloacae [7]) | MIC (Escherichia coli [8]) | pIC50 (Beta-lactamase TEM) | MIC (Enterobacter cloacae [9]) | MIC (Pseudomonas aeruginosa) | MIC (Serratia marcescens [10]) | MIC (Escherichia coli [11]) | pIC50 [12] | MIC (Escherichia coli [13]) | pIC50 [14] | pIC50 (Beta-lactamase SHV-1) |
| --- | --- | --- | --- | --- | --- | --- | --- | --- | --- | --- | --- | --- | --- | --- | --- | --- | --- | --- | --- | --- |
| Cc1cccc2sc3nc(/C=C4/C(=O)N5C(C(=O)[O-])=CS[C@H]45)cn3c12.[Na+] | 4 µg/mL | < 0.06 µg/mL | 8 µg/mL | 16 µg/mL | 8.70 | 16 µg/mL | 2 µg/mL | 2 µg/mL | 32 µg/mL | 16 µg/mL | < 0.06 µg/mL | 8.05 | 16 µg/mL | 2 µg/mL | 4 µg/mL | 2 µg/mL | 6.43 | > 64 µg/mL | – | – |
| O=C([O-])C1=CS[C@@H]2/C(=C\c3cn4c5c(sc4n3)CCC5)C(=O)N12.[Na+] | 1 µg/mL | 2 µg/mL | 4 µg/mL | 4 µg/mL | 8.70 | 8 µg/mL | 2 µg/mL | 2 µg/mL | 16 µg/mL | 16 µg/mL | < 0.06 µg/mL | – | 4 µg/mL | 2 µg/mL | 2 µg/mL | 2 µg/mL | – | > 64 µg/mL | 8.42 | 7.92 |
| Cc1ccc2c(c1)sc1nc(/C=C3/C(=O)N4C(C(=O)[O-])=CS[C@H]34)cn12.[Na+] | 0.5 µg/mL | < 0.06 µg/mL | 4 µg/mL | 8 µg/mL | 9.00 | 16 µg/mL | 2 µg/mL | 1 µg/mL | 32 µg/mL | 8 µg/mL | < 0.06 µg/mL | 8.52 | 8 µg/mL | 16 µg/mL | 1 µg/mL | 2 µg/mL | 6.99 | > 64 µg/mL | – | – |
| O=C([O-])C1=CS[C@@H]2/C(=C\c3cn4c(n3)sc3cc(Cl)ccc34)C(=O)N12.[Na+] | 1 µg/mL | < 0.06 µg/mL | 4 µg/mL | 32 µg/mL | 8.52 | 16 µg/mL | 1 µg/mL | 1 µg/mL | 16 µg/mL | 8 µg/mL | < 0.06 µg/mL | 8.22 | 8 µg/mL | 16 µg/mL | 2 µg/mL | 2 µg/mL | 7.13 | > 64 µg/mL | – | – |
| O=C([O-])C1=CS[C@@H]2/C(=C\c3cn4c(n3)sc3cc(F)ccc34)C(=O)N12.[Na+] | 2 µg/mL | < 0.06 µg/mL | 8 µg/mL | 16 µg/mL | 8.70 | 16 µg/mL | 2 µg/mL | 2 µg/mL | 32 µg/mL | 16 µg/mL | < 0.06 µg/mL | 8.10 | 8 µg/mL | 4 µg/mL | 2 µg/mL | 2 µg/mL | – | > 64 µg/mL | – | – |
| C[C@]1(Cn2ccnn2)[C@H](C(=O)[O-])N2C(=O)C[C@H]2S1(=O)=O.[Na+] [TAZOBACTAM SODIUM] | 1 µg/mL | 64 µg/mL | 2 µg/mL | > 64 µg/mL | – | 2 µg/mL | 4 µg/mL | > 64 µg/mL | > 64 µg/mL | > 64 µg/mL | 0.12 µg/mL | – | > 64 µg/mL | > 64 µg/mL | > 64 µg/mL | 2 µg/mL | – | > 64 µg/mL | – | – |
| COc1ccc2c(c1)sc1nc(/C=C3/C(=O)N4C(C(=O)[O-])=CS[C@H]34)cn12.[Na+] | 2 µg/mL | < 0.06 µg/mL | 16 µg/mL | 64 µg/mL | 8.70 | 8 µg/mL | 2 µg/mL | 1 µg/mL | 64 µg/mL | 16 µg/mL | < 0.06 µg/mL | – | 16 µg/mL | 32 µg/mL | 2 µg/mL | 2 µg/mL | – | > 64 µg/mL | – | – |
| O=C([O-])C1=CS[C@@H]2/C(=C\c3cn4c(n3)sc3ccccc34)C(=O)N12.[Na+] | 0.5 µg/mL | < 0.06 µg/mL | 2 µg/mL | 16 µg/mL | 9.00 | 8 µg/mL | 2 µg/mL | 2 µg/mL | 16 µg/mL | 8 µg/mL | < 0.06 µg/mL | – | 2 µg/mL | 4 µg/mL | 1 µg/mL | 2 µg/mL | – | > 64 µg/mL | – | – |
